Data from patent US20230085307A1, “PYRIDAZINONE COMPOUND AND HERBICIDE” (NISSAN CHEMICAL CORPORATION, priority 2019, published 2023).

Tests used:
[1] = system: barnyard grass; assay: Test Example 3: herbicidal effect by foliage application, Wagner pot (Table 18, symbol H); format: in vivo, barnyard grass (Echinochloa crus-galli); settings: for herbicidal effect on H (barnyard grass), rating 0-5: 320 g/ha
Outline: (§1)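 Plants were sown in alluvial soil held under 0.1–0.5 cm standing water and grown 14 days in a greenhouse at 25–30 °C. An emulsifiable formulation, water-diluted to the set dose, was then sprayed onto the foliage, and effects were scored three weeks later using previously defined criteria.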

[2] = system: Italian ryegrass; assay: Test Example 5: herbicidal effect by foliage application, plastic box (Table 20, symbol K); format: in vivo, Italian ryegrass (Lolium multiflorum); settings: foliage application; for K: Italian ryegrass, herbicidal effect: three weeks after application; for effect on Italian ryegrass (K): 320 g/ha, 3 weeks after application
Outline: (§2)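 Sow seeds spot-wise in sterilized diluvial soil; cover with ~1.5 cm soil. Grow 14 days in greenhouse, 25° C. to 30° C. Spray foliage with emulsion diluted to predetermined amount. Rate effect after 3 weeks.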

[3] = system: barnyard grass; assay: Test Example 5: herbicidal effect by foliage application, plastic box (Table 20, symbol H); format: in vivo, barnyard grass (Echinochloa crus-galli); settings: foliage application; for H: barnyard grass, herbicidal effect: three weeks after application; for effect on barnyard grass (H): 320 g/ha, 3 weeks after application
Outline: as §2

[4] = system: oval-leafed pondweed; assay: Test Example 1: herbicidal activity, application before weed generation under submerged conditions (Table 16, symbol C); format: in vivo, oval-leafed pondweed (Monochoria vaginalis); settings: 320 g/ha applied herbicide
Outline: (§3)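 Emulsion formulation, water-diluted to set dose, was put onto the flooded surface (4 cm depth, alluvial soil) the same day weeds were sown and 2.5-leaf rice transplanted. After 3 weeks at 25-30 °C under glass, each species was rated 0 (≤5% kill) to 5 (≥90% kill).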

[5] = system: lambsquarters; assay: Test Example 5: herbicidal effect by foliage application, plastic box (Table 20, symbol O); format: in vivo, lambsquarters (Chenopodium album); settings: foliage application; for O: lambsquarters, herbicidal effect: three weeks after application; for effect on lambsquarters (O): 320 g/ha, 3 weeks after application
Outline: as §2

[6] = system: velvetleaf; assay: Test Example 4: herbicidal effect by soil treatment (Table 19, symbol M); format: in vivo, velvetleaf (Abutilon theophrasti); settings: for M: velvetleaf, herbicidal effect rating: AAH 320 g/ha
Outline: (§4)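 Applied as a water-diluted emulsion, the compound was sprayed onto soil covering newly sown seeds. Evaluation came three weeks after application, in a greenhouse held at 25° C. to 30° C.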

[7] = system: windgrass; assay: Test Example 4: herbicidal effect by soil treatment (Table 19, symbol L); format: in vivo, windgrass (Apera spica-venti)
Outline: as §4

[8] = system: lambsquarters; assay: Test Example 4: herbicidal effect by soil treatment (Table 19, symbol O); format: in vivo, lambsquarters (Chenopodium album); settings: for O: lambsquarters, herbicidal effect rating: AAH 320 g/ha
Outline: as §4

[9] = system: Japanese bulrush; assay: Test Example 1: herbicidal activity, application before weed generation under submerged conditions (Table 16, symbol B); format: in vivo, Japanese bulrush (Schoenoplectus juncoides); settings: 320 g/ha applied herbicide
Outline: as §3

[10] = system: redroot pigweed; assay: Test Example 5: herbicidal effect by foliage application, plastic box (Table 20, symbol N); format: in vivo, redroot pigweed (Amaranthus retroflexus); settings: foliage application, AAH 320 g/ha; for N: redroot pigweed, herbicidal effect: three weeks after application
Outline: as §2

[11] = system: barnyard grass; assay: Test Example 4: herbicidal effect by soil treatment (Table 19, symbol H); format: in vivo, barnyard grass (Echinochloa crus-galli); settings: for H: barnyard grass, herbicidal effect rating: AAH 320 g/ha
Outline: as §4

[12] = system: Chinese sprangletop; assay: Test Example 3: herbicidal effect by foliage application, Wagner pot (Table 18, symbol D); format: in vivo, chinese sprangletop (Leptochloa chinensis); settings: for herbicidal effect on D (Chinese sprangletop), rating 0-5: 320 g/ha
Outline: as §1

[13] = system: blackgrass; assay: Test Example 5: herbicidal effect by foliage application, plastic box (Table 20, symbol J); format: in vivo, blackgrass (Alopecurus myosuroides); settings: foliage application; for J: blackgrass, herbicidal effect: three weeks after application
Outline: as §2

[14] = system: late watergrass; assay: Test Example 2: herbicidal activity, application during weed generation under submerged conditions (Table 17, symbol A); format: in vivo, late watergrass (Echinochloa oryzicola); settings: AAH 320 g/ha; application during weed generation, submerged conditions
Outline: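 Wagner pot, alluvial soil, 4 cm flood; mixed sowing of all species; greenhouse 25° C.–30° C. Emulsifiable formulation, water-diluted to predetermined dose, applied to paddy water at 1–2 leaf stage. Effect rated at 3 wk using the earlier test's scoring criteria.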

[15] = system: velvetleaf; assay: Test Example 5: herbicidal effect by foliage application, plastic box (Table 20, symbol M); format: in vivo, velvetleaf (Abutilon theophrasti); settings: foliage application; for M: velvetleaf, herbicidal effect: three weeks after application; for effect on velvetleaf (M): 320 g/ha, 3 weeks after application
Outline: as §2

[16] = system: persian speedwell; assay: Test Example 4: herbicidal effect by soil treatment (Table 19, symbol R); format: in vivo, Persian speedwell (Veronica persica); settings: AAH 320 g/ha
Outline: as §4

[17] = amount of applied herbicide 320 g/ha
[18] = AAH 320 g/ha, evaluated three weeks after application

Row | SMILES | herbicidal effect on H (barnyard grass), rating 0-5 [1] | K: Italian ryegrass, herbicidal effect ([2]; AAH 320 g/ha) | H: barnyard grass, herbicidal effect ([3]; AAH 320 g/ha) | Herbicidal effect on C: oval-leafed pondweed (grade 0-5) [4] | O: lambsquarters, herbicidal effect ([5]; AAH 320 g/ha) | Herbicidal effect on B: Japanese bulrush (grade 0-5) [9] | N: redroot pigweed, herbicidal effect [10] | herbicidal effect on D (Chinese sprangletop), rating 0-5 [12] | J: blackgrass, herbicidal effect ([13]; AAH 320 g/ha) | herbicidal effect rating, A: late watergrass [14] | M: velvetleaf, herbicidal effect ([15]; AAH 320 g/ha) | R: persian speedwell, herbicidal effect rating [16] | M: velvetleaf, herbicidal effect rating [6] | O: lambsquarters, herbicidal effect rating [8] | H: barnyard grass, herbicidal effect rating [11] | effect on Italian ryegrass (K) [2] | effect on barnyard grass (H) [3] | effect on lambsquarters (O) [5] | effect on velvetleaf (M) [15] | also measured
1 | Cc1nn(C)c(=O)c(-c2c(-c3ccc4c(c3)OCCO4)sc3ccccc23)c1O [1-089] | 5 (Herbicidal rate of 90% or more (almost completely withered)) | 5 (Herbicidal rate of 90% or more (almost completely withered)) | 5 (Herbicidal rate of 90% or more (almost completely withered)) | 4 (Herbicidal rate of 70% or more and less than 90%) | 3 (Herbicidal rate of 40% or more and less than 70%) | 4 (Herbicidal rate of 70% or more and less than 90%) | 1 (Herbicidal rate of 5% or more and less than 20%) | 0 (Herbicidal rate of 5% or less (almost no effect)) | 0 (Herbicidal rate of 5% or less (almost no effect)) | 5 (Herbicidal rate of 90% or more (almost completely withered)) | 5 (Herbicidal rate of 90% or more (almost completely withered)) | – | – | – | – | – | – | – | – | herbicidal effect rating, M: velvetleaf [6, 17]: 2 (Herbicidal rate of 20% or more and less than 40%); herbicidal effect rating, L: windgrass [7, 17]: 0 (Herbicidal rate of 5% or less (almost no effect)); herbicidal effect rating, O: lambsquarters [8, 17]: 5 (Herbicidal rate of 90% or more (almost completely withered)); herbicidal effect rating, H: barnyard grass [11, 17]: 5 (Herbicidal rate of 90% or more (almost completely withered))
2 | Cc1nn(C)c(=O)c(-c2c(-c3ccc(OCC(F)(F)F)cc3)sc3ccccc23)c1O [1-140] | 5 (Herbicidal rate of 90% or more (almost completely withered)) | 5 (Herbicidal rate of 90% or more (almost completely withered)) | 5 (Herbicidal rate of 90% or more (almost completely withered)) | 0 (Herbicidal rate of 5% or less (almost no effect)) | 5 (Herbicidal rate of 90% or more (almost completely withered)) | 2 (Herbicidal rate of 20% or more and less than 40%) | 4 (Herbicidal rate of 70% or more and less than 90%) | 3 (Herbicidal rate of 40% or more and less than 70%) | 4 (Herbicidal rate of 70% or more and less than 90%) | 3 (Herbicidal rate of 40% or more and less than 70%) | 4 (Herbicidal rate of 70% or more and less than 90%) | 5 (Herbicidal rate of 90% or more (almost completely withered)) | 5 (Herbicidal rate of 90% or more (almost completely withered)) | 5 (Herbicidal rate of 90% or more (almost completely withered)) | 5 (Herbicidal rate of 90% or more (almost completely withered)) | – | – | – | – | –
3 | Cc1nn(C)c(=O)c(-c2c(-c3ccccc3OC(F)(F)F)sc3ccc(F)cc23)c1O [2-043] | 5 (Herbicidal rate of 90% or more (almost completely withered)) | – | – | 1 (Herbicidal rate of 5% or more and less than 20%) | – | 2 (Herbicidal rate of 20% or more and less than 40%) | – | 3 (Herbicidal rate of 40% or more and less than 70%) | – | 0 (Herbicidal rate of 5% or less (almost no effect)) | – | – | – | – | – | 0 (Herbicidal rate of 5% or less (almost no effect)) | 4 (Herbicidal rate of 70% or more and less than 90%) | 4 (Herbicidal rate of 70% or more and less than 90%) | 5 (Herbicidal rate of 90% or more (almost completely withered)) | herbicidal effect rating, M: velvetleaf ([6]; 320 g/ha): 3 (Herbicidal rate of 40% or more and less than 70%); herbicidal effect rating, L: windgrass ([7]; 320 g/ha): 0 (Herbicidal rate of 5% or less (almost no effect)); herbicidal effect rating, O: lambsquarters ([8]; 320 g/ha): 5 (Herbicidal rate of 90% or more (almost completely withered)); herbicidal effect rating, H: barnyard grass ([11]; 320 g/ha): 4 (Herbicidal rate of 70% or more and less than 90%)
4 | Cc1nn(C)c(=O)c(-c2c(-c3ccc(OC(F)F)cc3)sc3ccccc23)c1O [1-201] | 5 (Herbicidal rate of 90% or more (almost completely withered)) | – | – | 1 (Herbicidal rate of 5% or more and less than 20%) | – | 4 (Herbicidal rate of 70% or more and less than 90%) | – | 4 (Herbicidal rate of 70% or more and less than 90%) | – | 0 (Herbicidal rate of 5% or less (almost no effect)) | – | 5 (Herbicidal rate of 90% or more (almost completely withered)) | 3 (Herbicidal rate of 40% or more and less than 70%) | 5 (Herbicidal rate of 90% or more (almost completely withered)) | 5 (Herbicidal rate of 90% or more (almost completely withered)) | 5 (Herbicidal rate of 90% or more (almost completely withered)) | 5 (Herbicidal rate of 90% or more (almost completely withered)) | 5 (Herbicidal rate of 90% or more (almost completely withered)) | 5 (Herbicidal rate of 90% or more (almost completely withered)) | effect on blackgrass (J) ([13]; 320 g/ha, 3 weeks after application): 4 (Herbicidal rate of 70% or more and less than 90%)
5 | C=CCSCc1ccc(-c2sc3ccc(F)cc3c2-c2c(O)c(C)nn(C)c2=O)cc1 [2-323] | – | – | – | 0 (Herbicidal rate of 5% or less (almost no effect)) | – | 2 (Herbicidal rate of 20% or more and less than 40%) | – | – | – | 3 (Herbicidal rate of 40% or more and less than 70%) | – | – | – | – | – | – | – | – | – | herbicidal effect on H: barnyard grass [1, 17]: 5 (Herbicidal rate of 90% or more (almost completely withered)); K: Italian ryegrass, herbicidal effect (criteria 0-5) [2, 18]: 4 (Herbicidal rate of 70% or more and less than 90%); H: barnyard grass, herbicidal effect (criteria 0-5) [3, 18]: 4 (Herbicidal rate of 70% or more and less than 90%); O: lambsquarters, herbicidal effect (criteria 0-5) [5, 18]: 5 (Herbicidal rate of 90% or more (almost completely withered)); herbicidal effect on M: velvetleaf [6, 17]: 1 (Herbicidal rate of 5% or more and less than 20%); herbicidal effect on L: windgrass [7, 17]: 0 (Herbicidal rate of 5% or less (almost no effect)); herbicidal effect on O: lambsquarters [8, 17]: 3 (Herbicidal rate of 40% or more and less than 70%); N: redroot pigweed, herbicidal effect (criteria 0-5) ([10]; evaluated three weeks after application): 5 (Herbicidal rate of 90% or more (almost completely withered)); herbicidal effect on H: barnyard grass [11, 17]: 0 (Herbicidal rate of 5% or less (almost no effect)); herbicidal effect on D: Chinese sprangletop [12, 17]: 2 (Herbicidal rate of 20% or more and less than 40%); J: blackgrass, herbicidal effect (criteria 0-5) [13, 18]: 4 (Herbicidal rate of 70% or more and less than 90%); M: velvetleaf, herbicidal effect (criteria 0-5) [15, 18]: 5 (Herbicidal rate of 90% or more (almost completely withered))
